Test results reported in patent publication US20110218215A1, “Compositions and Methods for Treating Social Anxiety” (priority 2010, published 2011).

System: performance anxiety in the context of public speaking
Test: Open clinical trial: oral doses taken before public speaking, subject self-reports
Format: in vivo, human
Details: Subject 2, 40 mg propranolol HCl alone
Description: Subjects were selected based on their history of experiencing performance anxiety in the context of public speaking. Subjects received oral doses of the present composition, as described below, at various times prior to speaking engagements. The parameters assessed included but were not limited to the following: tremor of voice and hands, urinary and/or fecal urgency, tachycardia, anxiety, and side effects (e.g., dry mouth).

CC(C)NCC(O)COc1cccc2ccccc12.Cl (racemic) [propranolol HCl, (RS)-1-(isopropylamino)-3-(1-naphthyloxy)propan-2-ol]
fecal urgency (ninety minutes prior): did report fecal urgency | quality of presentation (ninety minutes prior): less colorful and confident presentation | voice tremor (ninety minutes prior): no tachycardia or voice tremor | tachycardia (ninety minutes prior to public speaking): no tachycardia
